Laboratory results: ChEMBL document CHEMBL5375946, “Discovery of KB-0742, a Potent, Selective, Orally Bioavailable Small Molecule Inhibitor of CDK9 for MYC-Dependent Cancers” (J Med Chem, 2023)

Legend:
in vitro [1] = conditions: mouse, plasma
in vitro [2] = conditions: rat, plasma
in vitro [3] = conditions: dog, plasma
in vitro [4] = conditions: human, plasma
in vitro [5] = conditions: dog, liver microsomes

fraction unbound at 10 µM (in vitro [1]): 0.52
fraction unbound at 10 µM (in vitro [2]): 0.59
fraction unbound at 10 µM (in vitro [3]): 0.28
fraction unbound at 10 µM (in vitro [4]): 0.62
remaining at 3 h (in vitro [5]): 68.8%
SMILES: CCC(CC)c1cc(N[C@H]2CC[C@H](N)C2)n2nccc2n1 [ISTISOCICLIB]
